In assay [1] the target is Cys242 in human PIK3CA (157-299) (Homo sapiens (Human), UniProt P42336). The experiment in a line: Covalent modification assay using MALDI-TOF MS. The class given is biochemical. The following applies: 4 h reaction time point. A digest of the protocol:
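PIK3CA (157-299) at 3.33 μM or 1 μM in 20 mM HEPES, 150 mM NaCl, 2 mM MgCl2, pH 7.3 was incubated with compound (from 10 mM DMSO stocks) in the dark at room temperature for 15 min, 30 min, 2 h or 4 h. Linear-mode MALDI-TOF peak heights gave percent modification.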

Assay [2] deals with pAKT in BT474 cells. The experiment in a line: Cell-based pAKT HTRF assay in BT474 cells. The note with it: BT474 cells, 4 hr incubation, read-out: pAKT inhibition IC50 in BT474 cells. The procedure, abridged: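 The HTRF signal (excitation 320 nm, emission 615 nm) came from d2/Eu Cryptate antibodies added to lysates and incubated 4–24 h at room temperature. Those lysates were taken from cells treated for 4 hr with compound, top concentration 3 μM, in 0.25% DMSO.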

[3] abbreviates: 3.33 μM protein target, 1:7.5 protein to compound ratio (compounds 1-852).
The mark [4] stands for this setting: 1 μM protein target, 1:5 protein to compound ratio (compounds 853-1279).
[5] abbreviates: Homo sapiens, BT-474, Compounds 10-999.

Molecules are shown by their SMILES. pIC50: −log10 of the molar value. Where two headings read alike, the source gives them in different places.

Sequence of Cys242 in human PIK3CA (157-299) (P42336 157-299): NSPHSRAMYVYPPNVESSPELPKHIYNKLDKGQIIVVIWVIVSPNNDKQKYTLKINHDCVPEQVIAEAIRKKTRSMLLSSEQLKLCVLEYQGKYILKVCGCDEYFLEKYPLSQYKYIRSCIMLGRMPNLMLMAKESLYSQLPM

A word on the pIC50: it is −log10 of the IC50, conventionally taken in molar units. For `COc1cc(F)ccc1-c1c(-c2cnn(C3CN(C(=O)C(F)Cl)C3)c2)nc(-c2ccc3c(c2)CCNC3)c2ccsc12` (stereo not drawn) [Compound 171], the “% of modification” value in assay [1] (setting [3]) is “D (percent of modification <25%)”. Besides, the pIC50 in assay [2] (Compounds 10-999) was below 5.52.
Regarding `C=CC(=O)N1CCn2nc(-c3nc(-c4ccc(=O)n(C)c4)c4ccsc4c3-c3c(F)cc(F)cc3OCCO)cc2C1C` (stereo not drawn) [Compound 872], in assay [1] (setting [4]), the “% of modification” value is reported as “A (percent of modification of PIK3CA protein ≥75%)”. The pIC50 in assay [2] (Compounds 10-999) was above 7.00.
In the case of `C=CC(=O)N1CCn2nc(-c3nc(-c4ccc(=O)n(C)c4)c4ccsc4c3-c3ccc(F)cc3OCCOC)nc2C1` [Compound 205], the “% of modification” value in assay [1] (setting [3]) was “A (percent of modification of PIK3CA protein ≥75%)”. For the same compound, the pIC50 in assay [2] (Compounds 10-999) is above 7.00.
For `C=CC(=O)N1CCc2ncc(-c3nc(-c4cnn(CC(F)F)c4)c4ccsc4c3-c3c(F)cc(F)cc3OC(C)C)cc2C1` [Compound 371] the same measures were “A (percent of modification of PIK3CA protein ≥75%)” and above 7.00.
For `C=CC(=O)N1CCC(n2cc(-c3nc(-c4ccc5c(c4)CNC(=O)C5)c4ccsc4c3-c3ccccc3)cn2)CC1` [Compound 75] the same measures were “B (50%<percent of modification <75%)” and below 5.52.
With `C=CC(=O)N1Cc2cc(-c3nc(-c4cnn(C)c4)c4ccsc4c3-c3c(F)cc(F)cc3OC)nn2C[C@H]1C` [Compound 820], the “% of modification” value in assay [1] (setting [3]) was “A (percent of modification of PIK3CA protein ≥75%)”. Besides, in assay [2] (Compounds 10-999), the pIC50 is above 7.00.
On to `C=CC(=O)N1CCn2nc(-c3nc(-c4ccc5c(c4)C(=O)NC5)c4ccsc4c3-c3c(F)cc(F)cc3OCCOC)cc2[C@H]1C` [Compound 845, 6-((S)-6-((R)-5-acryloyl-4-methyl-4,5,6,7-tetrahydropyrazolo[1,5-a]pyrazin-2-yl)-7-(2,4-difluoro-6-(2-methoxyethoxy)phenyl)thieno[3,2-c]pyridin-4-yl)isoindolin-1-one], for which the “% of modification” value in assay [1] (setting [3]) is recorded as “A (percent of modification of PIK3CA protein ≥75%)”. In assay [2] (setting [5]), the pIC50 is above 7.00.
In the case of `C=CC(=O)N1Cc2cc(-c3nc(-c4cnc(C)nc4)c4ccsc4c3-c3c(F)cc(F)cc3OCCOC)nn2C[C@H]1C` [Compound 686], the “% of modification” value in assay [1] (setting [3]) is “A (percent of modification of PIK3CA protein ≥75%)”. Further, in assay [2] (Compounds 10-999), the pIC50 was above 7.00.
`C=C(F)C(=O)N1CCn2nc(-c3nc(-c4ccc5c(c4)CCN(C)C5)c4ccsc4c3-c3ccc(F)cc3OCC(F)F)cc2C1` [Compound 325]: in assay [1] (setting [3]), the “% of modification” value is “B (50%<percent of modification <75%)”. Further, in assay [2] (Compounds 10-999), the pIC50 was 6.00 to 7.00.
Turning to `C=CC(=O)N1Cc2cc(-c3nc(-c4cncc(C#N)c4)c4ccsc4c3-c3c(F)cc(F)cc3OCCOC)nn2C[C@H]1C` [Compound 670], in assay [1] (setting [3]), the “% of modification” value was “A (percent of modification of PIK3CA protein ≥75%)”. The pIC50 in assay [2] (Compounds 10-999) was above 7.00.
As for `C=CC(=O)N1CCn2nc(-c3nc(-c4ccc(CC(=O)NC)cc4)c4ccsc4c3-c3c(F)cc(F)cc3OCCOC)cc2C1C` (stereo not drawn) [Compound 1017], in assay [1] (setting [4]), the “% of modification” value is “A (percent of modification of PIK3CA protein ≥75%)”. In assay [2] (Compounds 1000-1279), the pIC50 was above 7.00.
`C=CC(=O)N1Cc2cc(-c3nc(-c4cnn(C)c4)c4ccsc4c3-c3c(F)cc(F)cc3OCCO)nn2[C@@H](C)C1` [Compound 519]: the “% of modification” value in assay [1] (setting [3]) is “A (percent of modification of PIK3CA protein ≥75%)”. The pIC50 in assay [2] (Compounds 10-999) was above 7.00.
On the same counts, the results for `C=CC(=O)N1CC[C@@H](n2cc(-c3nc(-c4ccn(C)c(=O)c4)c4ccsc4c3-c3c(F)cc(F)cc3OC(C)C)cn2)C1` [Compound 386] are “A (percent of modification of PIK3CA protein ≥75%)” and above 7.00.
In the case of `C=CC(=O)N1CCn2nc(-c3nc(-c4ccc5c(c4)CCNC5=O)c4ccsc4c3-c3c(F)cc(F)cc3OC[C@@H](C)O)cc2[C@H]1C` [Compound 894], the “% of modification” value in assay [1] (setting [4]) is “A (percent of modification of PIK3CA protein ≥75%)”. Besides, the pIC50 in assay [2] (Compounds 10-999) is above 7.00.
As for `C=CC(=O)N1Cc2cc(-c3nc(-c4ccc5cn[nH]c5c4)c4ccsc4c3-c3c(F)cc(F)cc3OCCOC)nn2C[C@H]1C` [Compound 690], the “% of modification” value in assay [1] (setting [3]) was “A (percent of modification of PIK3CA protein ≥75%)”. Besides, the pIC50 in assay [2] (Compounds 10-999) is above 7.00.
As for `C=CC(=O)N1CCc2nc(-c3nc(-c4ccc(N5CCN(C)CC5)nc4)c4ccsc4c3-c3c(F)cc(F)cc3OCCOC)sc2C1` [Compound 976], the “% of modification” value in assay [1] (setting [4]) was “A (percent of modification of PIK3CA protein ≥75%)”. Besides, the pIC50 in assay [2] (Compounds 10-999) is above 7.00.
Turning to `C=CC(=O)N1Cc2cc(-c3nc(-c4ccc5oc(C)nc5c4)c4ccsc4c3-c3c(F)cc(F)cc3OCC(C)O)nn2C(C)C1` (stereo not drawn) [Compound 683], in assay [1] (setting [3]), the “% of modification” value is “A (percent of modification of PIK3CA protein ≥75%)”. Also, the negative-log IC50 (pIC50) in assay [2] (Compounds 10-999) was above 7.00.
On the same counts, the results for `C=CC(=O)N1CCc2nc(-c3nc(N4CCC(N(C)C)CC4)c4ccsc4c3-c3ccc(F)cc3OCCOC)sc2C1` [Compound 175] are “A (percent of modification of PIK3CA protein ≥75%)” and 6.00 to 7.00.
Consider `C=CC(=O)N1Cc2cc(-c3nc(-c4ccc5c(c4)CNC(=O)C5)c4ccsc4c3-c3c(F)cc(F)cc3OCCO)nn2CC1C` (stereo not drawn) [Compound 927], for which the “% of modification” value in assay [1] (setting [4]) was “A (percent of modification of PIK3CA protein ≥75%)”. The pIC50 in assay [2] (Compounds 10-999) is above 7.00.
As to `C=CC(=O)N1CCn2nc(-c3nc(-c4ccc(CCN(C)C)cc4)c4ccsc4c3-c3c(F)cc(F)cc3OCCOC)cc2C1C` (stereo not drawn) [Compound 1060], the “% of modification” value in assay [1] (setting [4]) is on record as “A (percent of modification of PIK3CA protein ≥75%)”. For the same compound, in assay [2] (Compounds 1000-1279), the pIC50 was above 7.00.
As for `C=CC(=O)N1CCn2nc(-c3nc(-c4cnc5c(c4)CN(C)CC5)c4ccsc4c3-c3ccc(F)cc3OCCOC)cc2C1` [Compound 253], the “% of modification” value in assay [1] (setting [3]) is “A (percent of modification of PIK3CA protein ≥75%)”. The pIC50 in assay [2] (Compounds 10-999) was above 7.00.
In the case of `C=CC(=O)N1CCn2nc(-c3nc(-c4ccc(OC5CN(C)C5)nc4)c4ccsc4c3-c3c(F)cc(F)cc3OCCOC)cc2C1C` (stereo not drawn) [Compound 1205], the “% of modification” value in assay [1] (setting [4]) is “A (percent of modification of PIK3CA protein ≥75%)”. For the same compound, in assay [2] (Compounds 1000-1279), the pIC50 was above 7.00.
Consider `C=CC(=O)N1CC(n2cc(-c3nc(-c4ccc5c(c4)CCNCC5)c4ccsc4c3-c3ccc(F)cc3OC)cn2)C1` [Compound 102], for which, in assay [1] (setting [3]), the “% of modification” value is given as “A (percent of modification of PIK3CA protein ≥75%)”. The pIC50 in assay [2] (Compounds 10-999) was 6.00 to 7.00.
In the case of `C=CC(=O)N1CC(n2cc(-c3nc(C4CCC5(CC4)CNC5)c4ccsc4c3-c3ccc(F)cc3OCCOC)cn2)C1` [Compound 147], the “% of modification” value in assay [1] (setting [3]) is listed as “A (percent of modification of PIK3CA protein ≥75%)”. The pIC50 in assay [2] (Compounds 10-999) was 5.52 to 6.00.
On the same counts, the results for `C=CC(=O)N1CCc2nc(-c3nc(-c4ccc5c(c4)CCN(C)C5)c4ccsc4c3-c3c(F)cc(F)cc3OCCO)sc2C1` [Compound 418] are “A (percent of modification of PIK3CA protein ≥75%)” and above 7.00.
`C=CC(=O)N1Cc2cc(-c3nc(-c4ccc5c(c4)CN(C)C5=O)c4ccsc4c3-c3c(F)cc(F)cc3OC)nn2C(C)C1` (stereo not drawn) [Compound 946]: in assay [1] (setting [4]), the “% of modification” value is recorded as “A (percent of modification of PIK3CA protein ≥75%)”. Moreover, the pIC50 in assay [2] (Compounds 10-999) was above 7.00.
As to `C=CC(=O)N1CCc2nc(-c3nc(-c4ccn(C(F)F)c(=O)c4)c4ccsc4c3-c3c(F)cc(F)cc3OC(C)C)sc2C1` [Compound 362], the “% of modification” value in assay [1] (setting [3]) is listed as “A (percent of modification of PIK3CA protein ≥75%)”. In addition, the pIC50 in assay [2] (Compounds 10-999) is 6.00 to 7.00.
On the same counts, the results for `C=CC(=O)N1CCc2nc(-c3nc(-c4ccc5c(c4)CNC5=O)c4ccsc4c3-c3c(F)cc(F)cc3OC(C)C)sc2C1` (single isomer, unassigned) [Compound 414] are “A (percent of modification of PIK3CA protein ≥75%)” and above 7.00.
As to `C=CC(=O)N1CCn2nc(-c3nc(-c4ccc(C5(C(=O)NC)CC5)cc4)c4ccsc4c3-c3c(F)cc(F)cc3OCCO)cc2[C@H]1C` [Compound 1135], in assay [1] (setting [4]), the “% of modification” value is “A (percent of modification of PIK3CA protein ≥75%)”. The pIC50 in assay [2] (Compounds 1000-1279) was above 7.00.
With `C=CC(=O)N1CCn2nc(-c3nc(-c4ccc5c(c4)CCNC5=O)c4ccsc4c3-c3ccc(F)cc3OC(C)C)cc2C1` [Compound 199, 6-[7-(4-fluoro-2-isopropoxy-phenyl)-6-(5-prop-2-enoyl-6,7-dihydro-4H-pyrazolo[1,5-a]pyrazin-2-yl)thieno[3,2-c]pyridin-4-yl]-3,4-dihydro-2H-isoquinolin-1-one], the “% of modification” value in assay [1] (setting [3]) is “A (percent of modification of PIK3CA protein ≥75%)”. Further, the pIC50 in assay [2] (setting [5]) was above 7.00.
With `C=C(F)C(=O)N1CCn2nc(-c3nc(-c4cnc5c(c4)CN(C)CC5)c4ccsc4c3-c3ccc(F)cc3OC(C)C)cc2C1` [Compound 306], in assay [1] (setting [3]), the “% of modification” value is “B (50%<percent of modification <75%)”. Besides, in assay [2] (Compounds 10-999), the pIC50 was above 7.00.
For the compound `C=CC(=O)N1CCn2nc(-c3nc(-c4cnn(C)c4)c4ccsc4c3-c3c(F)cc(F)cc3OC[C@@H](C)O)cc2[C@@H]1C` [Compound 547], in assay [1] (setting [3]), the “% of modification” value was “A (percent of modification of PIK3CA protein ≥75%)”. Further, in assay [2] (Compounds 10-999), the pIC50 was above 7.00.
In the case of `C=CC(=O)N1Cc2cc(-c3nc(-c4ccc5c(c4)CCN(C)C5)c4ccsc4c3-c3c(F)cc(F)cc3OCC)nn2CC1C` (stereo not drawn) [Compound 503], in assay [1] (setting [3]), the “% of modification” value was “A (percent of modification of PIK3CA protein ≥75%)”. Also, the pIC50 in assay [2] (Compounds 10-999) is above 7.00.

The values above are taken from patent US20250230138A1, “COMPOUNDS HAVING A T-STRUCTURE FORMED BY AT LEAST FOUR CYCLES FOR USE IN THE TREATMENT OF CANCER AND OTHER INDICATIONS” (TheRas, Inc., priority 2022, published 2025).
